For 67 compounds, EC50, IC50 and outcome results are on record in PubChem BioAssay AID179 (DTP/NCI, 2004).

The assay concerns CEM cells HIV-1 protection, formazan growth assay. As to the kind of experiment: NCI AIDS Antiviral Assay. The following applies: for IC50: measured here: growth of uninfected CEM cells. The essentials: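 Human CEM cells, uninfected and HIV-1-infected, received five drug concentrations, and growth was read by soluble formazan assay. Compounds giving at least 50% protection were retested; reproducible 100% protection defined confirmed active.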

Activity calls are given as the source filed them.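 Rule for the calls: active = compounds giving half or more protection of infected cells from virus-caused growth loss, again on retest; inactive = the rest.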 Where a SMILES comes first, the peptide text is derived from it.

On to `O=C(O)COc1ccc(C(=O)/C(SS/C(C(=O)c2ccc(OCC(=O)O)c(Cl)c2Cl)=C2\C=C(c3ccccc3Cl)SS2)=C2/C=C(c3ccccc3Cl)SS2)c(Cl)c1Cl`, for which the EC50 was more than 35.5 µM and the IC50 was more than 35.5 µM.

`CN1C(=O)C2(C=CC(O)CC2)c2ccccc21` (centres undefined): the EC50 is more than 200 µM and the IC50 is more than 200 µM.

In the case of `CC(=O)O[C@H]1C(=O)[C@@]2(C)[C@H]([C@H](OC(=O)c3ccccc3)[C@]3(O)C[C@H](OC(=O)[C@H](O)[C@@H](NC(=O)c4ccccc4)c4ccccc4)C(C)=C1C3(C)C)[C@]1(OC(C)=O)CO[C@@H]1C[C@@H]2O`, the EC50 was more than 0.417 µM and the IC50 was determined as 0.0135 µM.

`CC1=C(C(=O)Nc2ccc([N+](=O)[O-])cc2)C(c2cccc([N+](=O)[O-])c2)C(C(=O)Nc2ccc([N+](=O)[O-])cc2)=C(C)N1`: the EC50 was more than 4.9 µM and the half-maximal inhibitory concentration (IC50) is more than 4.9 µM.

Take `COC(=O)C1(C(=O)OC)C2=Nc3ccccc3[C@@]23CCN(Cc2ccccc2)C3C[C@H]1c1ccoc1` (some centres undefined): the EC50 is more than 36.3 µM and the half-maximal inhibitory concentration (IC50) was 21.4 µM.

Turning to `Nc1c(N=Nc2ccc(S(=O)(=O)c3ccc(N=Nc4cc(S(=O)(=O)O)c5cccc(S(=O)(=O)O)c5c4N)cc3)cc2)cc(S(=O)(=O)O)c2cccc(S(=O)(=O)O)c12`, the EC50 was 25.1 µM and the 50% inhibitory concentration (IC50) came out at 380 µM.

In the case of `O=C(O)c1ccc(CSc2ccc(Cl)cc2)c([N+](=O)[O-])c1`, the EC50 is more than 209 µM and the IC50 was 95.5 µM.

As to `O=C1Cc2cn[nH]c2-c2ccccc2N1`, the result was inactive.

On to `CC(NC(=O)C(C)NC(=O)C(CC(N)=O)NC(=O)CN)C(=O)NC(CO)C(=O)NC(C)C(=O)NC(CCCN=C(N)N)C(N)=O` (centres undefined) (H-GNAASAR-NH2; configuration not given here), for which the outcome was inactive.

Regarding `Cc1nc2cc(C(=O)NC=O)c3n[nH]nc3c2n1C`, the EC50 is more than 200 µM and the IC50 is more than 200 µM.

`CN(/N=C\c1ccc2ccccc2c1)C1=NCCCN1`: the EC50 was more than 200 µM and the IC50 came to 10 µM.

For `COc1ccc(C2(CN(C)C)COc3cc(OC)c(OC)cc3C2=O)cc1OC` (centres undefined), the outcome was inactive.

As to `COc1cc(Nc2cnc3ccc(C(F)(F)F)cc3n2)cc(OC)c1OC`, the EC50 was more than 35.5 µM and the 50% inhibitory concentration (IC50) came to 6.92 µM.

`COc1cc(C2c3cc4c(cc3OC(NN=C(C)C)C2C)OCO4)cc(OC)c1O` (centres undefined): the EC50 is more than 200 µM and the IC50 stood at 5.5 µM.

Turning to `CCN(C(=O)N[C@H](C(=O)N[C@@H](CSC)C(=O)N[C@@H](C)C(=O)OC)C(C)C)c1ccccc1`, the outcome was inactive.

On to `Cc1cc(OP2(=O)Nc3ccccc3-c3ccccc3N2)ccc1Cl`, for which the EC50 is more than 70.8 µM and the IC50 was determined as 1.26 µM.

Consider `CCC1CCCCN1CC(C(C)=O)C(c1ccccc1)c1c(O)c2ccccc2oc1=O` (centres undefined), for which the EC50 is more than 69.2 µM and the IC50 was more than 69.2 µM.

On to `CCCCC(C(=O)NCCNC(=O)CCC(=O)N(C)O)C(=O)NCCNC(=O)CCC(=O)N(C)O`, for which the EC50 was more than 200 µM and the 50% inhibitory concentration (IC50) amounted to 112 µM.

For `N#Cc1nc(COCCOCc2ccc(F)cc2)oc1N`, the EC50 is more than 200 µM and the IC50 is more than 200 µM.

With `C=C1C(=O)O[C@H]2[C@H]1CC(=O)/C(C)=C/CC[C@@]1(C)O[C@@H]21`, the EC50 was more than 2 µM and the IC50 was determined as 0.794 µM.

Turning to `Cc1ccc(C(=O)O)c(/C=C2\Cc3cc(C)cc(C)c3C2=O)c1`, the outcome was inactive.

Regarding `COc1cc(OC)c2c(c1)C(=O)c1cccc(O)c1C2=O`, the outcome was inactive.

`C/C=C/C=Nc1c(C#N)c2n(c1C(=O)Nc1ccccc1)CCCC2`: the EC50 is more than 50.1 µM and the half-inhibitory concentration (IC50) is more than 50.1 µM.

With `Cc1ccc2c(c1)[nH]c(=S)n2/C=C(/c1ccc(Cl)cc1)S(=O)(=O)Cc1ccc(Cl)cc1`, the EC50 is more than 200 µM and the concentration for half-maximal inhibition (IC50) is more than 200 µM.

With `O=[N+]([O-])c1ccccc1S(=O)(=O)Nc1ccccc1`, the outcome was inactive.

For the compound `COc1ccc2c(c1)N(CC(C)CN(C)C)c1ccccc1S2` (centres undefined), the EC50 is more than 200 µM and the 50% inhibitory concentration (IC50) is more than 200 µM.

On to `CCc1n[nH]c(=O)n1NC(=O)c1ccccc1C(=O)O`, for which the EC50 is more than 200 µM and the concentration for half-maximal inhibition (IC50) is more than 200 µM.

`CC(C)CCCC(C)[C@H]1CC[C@H]2[C@H]3CC[C@@H]4C[C@H](CCC=C(c5cc(Cl)c(O)c(C(=O)O)c5)c5cc(Cl)c(O)c(C(=O)O)c5)CC[C@]4(C)[C@H]3CC[C@]12C` (some centres undefined): the EC50 was 41.7 µM and the half-inhibitory concentration (IC50) is more than 200 µM.

For the compound `CN(C)CC(/C(Cc1ccccc1)=N\NC(=S)NN)c1ccccc1` (centres undefined), the EC50 was more than 35.5 µM and the concentration for half-maximal inhibition (IC50) was more than 35.5 µM.

`COc1c2c(c3ccccc3c1O)C1C=CC2C1` (centres undefined): the EC50 is more than 110 µM and the IC50 worked out at 10 µM.

For the compound `CCN(CC)CCNc1ccc([N+](=O)[O-])c2nc3ccccc3c(N)c12`, the EC50 was more than 100 µM and the IC50 was 0.575 µM.

Take `CCCCN(CCCC)C(=O)/C(CC(=O)c1cccc2ccccc12)=N\NC(=O)c1cc2ccccc2cc1O`: the EC50 is more than 34.7 µM and the concentration for half-maximal inhibition (IC50) is 16.2 µM.

In the case of `CN(C)CCn1c(=O)nc2c3c(c([N+](=O)[O-])ccc31)Nc1ccc(O)cc1-2`, the EC50 is more than 2 µM and the half-inhibitory concentration (IC50) is 1.95 µM.

As to `Nn1c(-c2ccccc2)nc2ccc(Br)cc2c1=O`, the outcome was inactive.

Turning to `c1ccc2[nH]c(C3=NCCS3)nc2c1`, the EC50 is more than 1230 µM and the IC50 stood at 240 µM.

Consider `O=c1[nH]nc(-c2ccccc2)n1-c1ccncc1`, for which the EC50 is more than 200 µM and the IC50 is more than 200 µM.

For the compound `CC(=O)O[C@H]1CC[C@H]2[C@@H]3[C@H](C)CC4=CC(=O)CCC4[C@H]3CC[C@]12C` (some centres undefined), the EC50 is more than 200 µM and the IC50 was 69.2 µM.

For `CCCCCCCCCCCCCCCCOC1N(C2CC(N=[N+]=[N-])C(CO)O2)C(=O)NC(=O)[C@]1(C)Br` (some centres undefined), the EC50 is more than 200 µM and the 50% inhibitory concentration (IC50) worked out at 11 µM.

Take `COC(=O)NC(Cc1ccccc1)NC(=O)OC(C)(C)C` (centres undefined): the EC50 was more than 200 µM and the half-maximal inhibitory concentration (IC50) was more than 200 µM.

`CC1(O)c2ccccc2[P+](C)(c2ccccc2)c2ccccc21` (centres undefined): the EC50 is more than 562 µM and the half-maximal inhibitory concentration (IC50) is 29.5 µM.

In the case of `CC(C)CC(=O)[O-].CC(C)CC(=O)[O-].N.N.N.N.[Co+3].[O-][Cl+3]([O-])([O-])[O-]`, the result was inactive.

In the case of `CC[C@]1(O)CC[C@H]2[C@@H]3CCC4=CC(=O)CC[C@@H]4[C@H]3CC[C@@]21CC`, the EC50 is more than 200 µM and the IC50 came to 49 µM.

`CCOC(=O)c1ccc(Nc2nc3ccc(C(F)(F)F)cc3nc2C(=O)OCC)cc1`: the result was inactive.

Regarding `COc1cc2oc(-c3ccccc3)cc(=O)c2c(O)c1C`, the EC50 was more than 33.1 µM and the concentration for half-maximal inhibition (IC50) was more than 33.1 µM.

Take `Cc1ccc2nc(NC(=O)C(=O)C(C#N)c3nc4ccccc4s3)sc2c1` (centres undefined): the EC50 was more than 66.1 µM and the IC50 was more than 66.1 µM.

On to `COP(=O)(OC)C(NC(=O)C(F)(F)F)(c1ccccc1)C(F)(F)F` (centres undefined), for which the EC50 is more than 200 µM and the IC50 was more than 200 µM.

With `Cn1c(N)nc2c3ccc(=O)[nH]c3ccc21`, the outcome was inactive.

For `Cc1c(C(=O)N(CCO)CCO)[n+](=O)c2ccccc2n1[O-]`, the EC50 was more than 575 µM and the IC50 is more than 575 µM.

Take `CCOC(=O)NC(=O)c1cn(CCCCCCCCCCC(=O)NCCCN2CCN(CCCNC(=O)CCCCCCCCCCn3cc(C(=O)NC(=O)OCC)c(=O)[nH]c3=O)CC2)c(=O)[nH]c1=O`: the result was inactive.

In the case of `CC1(C)/C(=N\Nc2ccc([N+](=O)[O-])cc2[N+](=O)[O-])C2CCC1C2` (centres undefined), the EC50 is more than 200 µM and the concentration for half-maximal inhibition (IC50) is more than 200 µM.

For the compound `CC(=O)Oc1ccc2c(=O)c(C(C)=O)coc2c1`, the outcome was inactive.

Regarding `O=C(O)c1cccc2cccc(C(=O)O)c12.[Hg]`, the outcome was inactive.

Turning to `COc1ccc(/C(C)=N/N=C\c2cc(OC)c(OC)c(OC)c2)cc1`, the EC50 was more than 200 µM and the IC50 was more than 200 µM.

Consider `COc1ccc(CC(NC(=O)NSc2ccccc2)C(=O)NC2C(CO)OC(n3cnc4c(N(C)C)ncnc43)C2O)cc1` (centres undefined), for which the EC50 was more than 200 µM and the half-inhibitory concentration (IC50) amounted to 87.1 µM.

Consider `CCSSc1ccccc1C(=O)NC(CC)CO` (centres undefined), for which the EC50 was more than 200 µM and the IC50 turned out to be 5.01 µM.

On to `O=C(N/N=C/c1cccc(O)c1O)N/N=C/c1cccc(O)c1O`, for which the EC50 was more than 200 µM and the 50% inhibitory concentration (IC50) was 6.76 µM.

For the compound `NC(CS)=NCc1ccccc1`, the EC50 is more than 200 µM and the half-inhibitory concentration (IC50) amounted to 33.1 µM.

`O=C(O)c1ccc2c(c1)C(=O)c1ccccc1C2=O` returned a half-maximal effective concentration (EC50) of more than 200 µM and an IC50 of 97.7 µM.

As for `CC(C(C(=O)O)S(=O)(=O)O)C(C(=O)O)S(=O)(=O)O` (centres undefined), the EC50 is more than 100 µM and the IC50 worked out at 20.4 µM.

As for `O=C(Nc1cc(Cl)c(Cl)cc1Cl)C(=O)C1C=CCS1(=O)=O` (centres undefined), the EC50 is more than 51.3 µM and the IC50 was more than 51.3 µM.

With `O=C(NCCC1([N+](=O)[O-])CCN(C(=O)c2ccccc2)CC1)c1ccccc1`, the result was inactive.

With `Cn1nc(NC(=O)c2cc(NC(=O)Nc3cc(C(=O)Nc4cc(C(=O)Nc5ccc6cc(S(=O)(=O)O)cc(S(=O)(=O)O)c6c5)n(C)n4)n(C)n3)nn2C)cc1C(=O)Nc1ccc2cc(S(=O)(=O)O)cc(S(=O)(=O)O)c2c1`, the EC50 was 5.13 µM and the half-maximal inhibitory concentration (IC50) was more than 100 µM.

On to `Cc1nc(C(N)=S)sc1/C(CC(=O)C(=O)Nc1cccc2ccc(O)cc12)=N\NC(=O)c1ccncc1`, for which the EC50 was more than 35.5 µM and the IC50 is more than 35.5 µM.

`CCOC(=O)c1ccc(CS(=O)c2ccc(OC)cc2)c([N+](=O)[O-])c1` (centres undefined): the EC50 was more than 100 µM and the half-maximal inhibitory concentration (IC50) turned out to be 12.3 µM.

On to `CCCCCCCCCC=C(c1cc(Br)cc(C(=O)O)c1O)c1cc(Br)cc(C(=O)O)c1O`, for which the EC50 was more than 22.9 µM and the 50% inhibitory concentration (IC50) was more than 22.9 µM.

In the case of `Cc1cc(Cc2cccc3ccccc23)nc2c1ccc1ccccc12`, the EC50 was more than 200 µM and the IC50 worked out at 110 µM.

In the case of `Nc1[nH]c(=S)[nH]c(=O)c1N=O`, the EC50 is more than 200 µM and the 50% inhibitory concentration (IC50) is more than 200 µM.
